# Results from patent US8952034B2, “Fused heterocyclic compounds as ion channel modulators” (Gilead Sciences, Inc., priority 2009, dated 2015).
# Molecular target: wild-type human cardiac sodium channel, hNav1.5 (Homo sapiens, UniProt Q14524)
# Test: Late INa screening assay (automated whole cell patch clamp, PatchXpress)
# Assay type: cell-based
# Conditions: HEK293 cells expressing hNav1.5, late INa generated with 10 μM Tefluthrin (or 50 nM ATX II); for inhibition at 10 µM: compound at 10 μM, read-out: LateINa_10 uM (percent block of late INa); for inhibition at 1 µM: compound at 1 μM, read-out: LateINa_1 uM (percent block of late INa)
# Method: The late sodium current (Late INa) and peak sodium current (Peak INa) assays are performed on an automated electrophysiology platform, PatchXpress 7000A (MDS Analytical Technologies, Sunnyvale, Calif.), which uses the whole cell patch clamp technique to measure currents through the cell membrane of up to 16 cells at a time. The assay uses an HEK293 (human embryonic kidney) cell line heterologously expressing the wild-type human cardiac sodium channel, hNav1.5, purchased from Millipore (Billerica, Mass.). No beta subunits were coexpressed with the Na channel alpha subunit. Cells are maintained with standard tissue culture procedures and stable channel expression is maintained with 400 μg/ml Geneticin in the culture medium. […] Experiments are carried out at 24-27° C.
# For both the Late INa and Peak INa assays, series resistance compensation is set to 50% and whole-cell compensation is performed automatically. […] Currents through open sodium channels are automatically recorded and stored in the DataXpress2 database (MDS Analytical Technologies, Sunnyvale, Calif.). Analysis is performed using DataXpress2 analysis software and data are compiled in Excel.
# Compound stocks are routinely made in glass vials to 10 mM in dimethyl sulfoxide (DMSO). In some cases, when compounds are not soluble in DMSO, they are made in 100% ethanol. Stocks are sonicated as necessary. The extracellular solution for screening Late INa is composed of: 140 mM NaCl, 4 mM KCl, 1.8 mM CaCl2, 0.75 mM MgCl2, and 5 mM HEPES with pH adjusted to 7.4 using NaOH. The extracellular solution for screening Peak INa is composed of: 20 mM NaCl, 120 mM N-methyl-D glucamine, 4 mM KCl, 1.8 mM CaCl2, 0.75 mM MgCl2, and 5 mM HEPES with pH adjusted to 7.4 using HCl. The intracellular solution used to perfuse the inside of the cells for both the Late INa and Peak INa assays contains: 120 mM CsF, 20 mM CsCl, 5 mM EGTA, 5 mM HEPES and pH adjusted to 7.4 with CsOH. […] The 0Na extracellular solution used at the end of each experiment for the Late INa and Peak INa assays to measure baseline current contains: 140 mM N-methyl-D-glucamine; 4 mM KCl; 1.8 mM CaCl2; 0.75 mM MgCl2; 5 mM HEPES and pH was adjusted to 7.4 with HCl.
# For the Late INa assay, sodium channels are activated every 10 seconds (0.1 Hz) by depolarizing the cell membrane to −20 mV for 250 milliseconds (ms) from a holding potential of −120 mV. In response to a −20 mV voltage step, typical Nav1.5 sodium currents activate rapidly to a peak negative current and then inactivate nearly completely within […].
# All compounds are tested to determine their activity in blocking the late sodium current. Late INa current is generated by adding 10 μM Tefluthrin (pyrethroid) to the extracellular solution while recording Na currents For some experiments, 50 nM ATX II (sea anemone toxin), another late INa activator, was used to generate the late component. […] After establishing the whole cell recording configuration, late INa activators are added to each well 4 times over a 16-17 minute period so that the late component of the Na current reaches a stable value. […] Measurements are made at the end of exposure to the third compound addition and values are normalized to the current level when all Na^+ is removed from the extracellular solution after two additions of 0Na-ECF. Results are reported as percent block of late INa
# Sequence of wild-type human cardiac sodium channel, hNav1.5 (Q14524 whole entry): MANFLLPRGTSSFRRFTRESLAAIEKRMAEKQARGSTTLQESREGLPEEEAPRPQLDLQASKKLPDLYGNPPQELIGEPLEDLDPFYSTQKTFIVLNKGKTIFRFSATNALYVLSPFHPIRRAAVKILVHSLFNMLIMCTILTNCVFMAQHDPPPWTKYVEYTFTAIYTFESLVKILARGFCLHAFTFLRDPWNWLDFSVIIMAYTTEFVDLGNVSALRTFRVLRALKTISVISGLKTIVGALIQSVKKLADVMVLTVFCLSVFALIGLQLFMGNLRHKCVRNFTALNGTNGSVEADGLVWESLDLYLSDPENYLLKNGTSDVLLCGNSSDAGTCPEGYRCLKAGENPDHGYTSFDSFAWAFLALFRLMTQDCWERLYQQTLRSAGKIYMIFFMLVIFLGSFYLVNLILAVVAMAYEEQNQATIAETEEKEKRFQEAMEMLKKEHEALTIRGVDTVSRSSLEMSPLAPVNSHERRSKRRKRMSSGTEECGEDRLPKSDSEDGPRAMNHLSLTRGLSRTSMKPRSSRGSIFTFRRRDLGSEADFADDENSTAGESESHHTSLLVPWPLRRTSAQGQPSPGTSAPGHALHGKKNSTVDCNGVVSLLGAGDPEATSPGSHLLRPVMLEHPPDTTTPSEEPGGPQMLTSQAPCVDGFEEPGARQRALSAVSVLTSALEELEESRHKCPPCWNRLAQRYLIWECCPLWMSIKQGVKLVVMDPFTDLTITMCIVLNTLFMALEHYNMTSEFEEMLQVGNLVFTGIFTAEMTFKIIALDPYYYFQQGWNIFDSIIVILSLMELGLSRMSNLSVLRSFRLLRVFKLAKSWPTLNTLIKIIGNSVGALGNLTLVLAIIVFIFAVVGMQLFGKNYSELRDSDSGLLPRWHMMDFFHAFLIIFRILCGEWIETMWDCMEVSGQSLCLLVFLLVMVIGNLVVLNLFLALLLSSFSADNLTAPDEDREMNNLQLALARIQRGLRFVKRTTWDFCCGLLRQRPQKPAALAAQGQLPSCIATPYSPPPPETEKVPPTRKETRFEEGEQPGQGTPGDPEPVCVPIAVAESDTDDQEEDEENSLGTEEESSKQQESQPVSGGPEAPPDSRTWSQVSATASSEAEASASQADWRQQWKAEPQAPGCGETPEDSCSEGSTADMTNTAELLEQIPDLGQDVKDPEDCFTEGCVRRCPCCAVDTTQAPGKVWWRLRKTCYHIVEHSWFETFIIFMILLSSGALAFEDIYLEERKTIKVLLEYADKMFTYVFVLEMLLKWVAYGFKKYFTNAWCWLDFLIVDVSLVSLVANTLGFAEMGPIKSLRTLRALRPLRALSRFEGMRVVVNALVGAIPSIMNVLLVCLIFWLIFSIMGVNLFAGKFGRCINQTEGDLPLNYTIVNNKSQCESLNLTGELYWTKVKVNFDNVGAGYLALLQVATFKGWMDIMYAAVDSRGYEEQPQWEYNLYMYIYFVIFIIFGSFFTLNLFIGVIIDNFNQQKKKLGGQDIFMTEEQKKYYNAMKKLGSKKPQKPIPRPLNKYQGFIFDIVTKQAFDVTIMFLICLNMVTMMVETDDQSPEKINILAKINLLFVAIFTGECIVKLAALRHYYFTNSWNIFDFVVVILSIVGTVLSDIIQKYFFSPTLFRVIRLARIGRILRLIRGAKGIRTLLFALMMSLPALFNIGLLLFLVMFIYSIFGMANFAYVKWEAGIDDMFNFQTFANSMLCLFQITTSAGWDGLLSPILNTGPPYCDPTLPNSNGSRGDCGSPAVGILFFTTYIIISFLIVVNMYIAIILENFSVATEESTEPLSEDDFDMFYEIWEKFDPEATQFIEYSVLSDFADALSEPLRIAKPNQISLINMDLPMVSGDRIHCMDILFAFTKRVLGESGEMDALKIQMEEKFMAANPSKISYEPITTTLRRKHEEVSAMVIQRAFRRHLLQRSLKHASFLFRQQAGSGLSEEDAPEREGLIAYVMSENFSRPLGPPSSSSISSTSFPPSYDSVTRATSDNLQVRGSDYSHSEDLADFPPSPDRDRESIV
SMILES,inhibition at 10 µM [%],inhibition at 1 µM [%]
"Cc1cc(OC(F)(F)F)ccc1-c1cc(N)c2nnc(C)n2c1 [BHN-70, 3-methyl-6-[2-methyl-4-(trifluoromethoxy)phenyl][1,2,4]triazolo[4,3-a]pyridin-8-amine]",40.4,
"Cc1nnc(-c2ccc(-c3ccc4nnc(C(F)(F)F)n4c3)cc2)o1 [BHN-71, 6-[4-(5-methyl-1,3,4-oxadiazol-2-yl)phenyl]-3-(trifluoromethyl)[1,2,4]triazolo[4,3-a]pyridine]",20.5,
"FC(F)(F)Oc1ccc(-c2ccc3nnc(C(F)(F)F)n3c2)cc1CN1CCOCC1 [BHN-72, 6-[3-(morpholin-4-ylmethyl)-4-(trifluoromethoxy)phenyl]-3-(trifluoromethyl)[1,2,4]triazolo[4,3-a]pyridine]",26.7,
"NS(=O)(=O)c1ccc(-c2nnc3ccc(-c4ccc(OC(F)(F)F)cc4)cn23)cc1 [BHN-73, 4-{6-[4-(trifluoromethoxy)phenyl][1,2,4]triazolo[4,3-a]pyridin-3-yl}benzenesulfonamide]",17.5,
"COCC(F)(F)c1nnc2ccc(-c3ccc(OC(F)(F)F)cc3)cn12 [BHN-74, 3-(1,1-difluoro-2-methoxyethyl)-6-[4-(trifluoromethoxy)phenyl][1,2,4]triazolo[4,3-a]pyridine]",67,46.9
"CS(=O)(=O)Nc1ccc(-c2nnc3ccc(-c4ccc(OC(F)(F)F)cc4)cn23)cc1 [BHN-75, N-(4-{6-[4-(trifluoromethoxy)phenyl][1,2,4]triazolo[4,3-a]pyridin-3-yl}-phenyl)methanesulfonamide]",30.1,
"CC(=O)Nc1cc(-c2ccc(OC(F)(F)F)cc2C)cn2c(C)nnc12 [BHN-76, N-{3-methyl-6-[2-methyl-4-(trifluoromethoxy)phenyl][1,2,4]triazolo[4,3-a]pyridin-8-yl}acetamide]",31.9,
"NC(=O)c1ccc(-c2nnc3ccc(-c4ccc(OC(F)(F)F)cc4)cn23)cc1 [BHN-79, 4-{6-[4-(trifluoromethoxy)phenyl][1,2,4]triazolo[4,3-a]pyridin-3-yl}benzamide]",19.3,
"CCOC(=O)c1cccc(-c2ccc3nnc(-c4cccc(C(=O)OCC)c4)n3c2)c1 [BHN-80, diethyl 3,3′-[1,2,4]triazolo[4,3-a]pyridine-3,6-diyldibenzoate]",59,
"CN1CCN(Cc2cc(-c3ccc4nnc(C(F)(F)F)n4c3)ccc2OC(F)(F)F)CC1 [BHN-81, 6-{3-[(4-methylpiperazin-1-yl)methyl]-4-(trifluoromethoxy)phenyl}-3-(trifluoromethyl)[1,2,4]triazolo[4,3-a]pyridine]",30.3,
"Cn1cc(-c2nnc3ccc(-c4ccc(OC(F)(F)F)cc4)cn23)cn1 [BHN-82, 3-(1-methyl-1H-pyrazol-4-yl)-6-[4-(trifluoromethoxy)phenyl][1,2,4]triazolo[4,3-a]pyridine]",38.9,
"CN(C)Cc1cc(-c2ccc3nnc(C(F)(F)F)n3c2)ccc1OC(F)(F)F [BHN-83, N,N-dimethyl-1-{2-(trifluoromethoxy)-5-[3-(trifluoromethyl)[1,2,4]triazolo[4,3-a]pyridin-6-yl]phenyl}methanamine]",29.8,
"CCC(=O)Nc1cc(-c2ccc(OC(F)(F)F)cc2)cn2c(C)nnc12 [BHN-85, N-{3-methyl-6-[4-(trifluoromethoxy)phenyl][1,2,4]triazolo[4,3-a]pyridin-8-yl}propanamide]",20.5,
"CCOC(=O)c1ccc(-c2nnc3ccc(-c4ccc(OC(F)(F)F)cc4)cn23)cc1 [BHN-86, ethyl 4-{6-[4-(trifluoromethoxy)phenyl][1,2,4]triazolo[4,3-a]pyridin-3-yl}benzoate]",86.9,82.7
"CCOC(=O)c1cccc(-c2nnc3ccc(-c4ccc(OC(F)(F)F)cc4)cn23)c1 [BHN-87, ethyl 3-{6-[4-(trifluoromethoxy)phenyl][1,2,4]triazolo[4,3-a]pyridin-3-yl}benzoate]",72.2,38.9
"FC(F)(F)c1nnc2ccc(-c3ccc(C4CC4)nc3)cn12 [BHN-88, 6-(6-cyclopropylpyridin-3-yl)-3-(trifluoromethyl)[1,2,4]triazolo[4,3-a]pyridine]",36,

SMILES,inhibition at 10 µM [%],inhibition at 1 µM [%]
"FC(F)(F)c1nnc2ccc(-c3cnc(C4CC4)nc3)cn12 [BHN-89, 6-(2-cyclopropylpyrimidin-5-yl)-3-(trifluoromethyl)[1,2,4]triazolo[4,3-a]pyridine]",20.5,
"FC(F)(F)c1nnc2ccc(-c3ccc(C4CC4)cc3)cn12 [BHN-90, 6-(4-cyclopropylphenyl)-3-(trifluoromethyl)[1,2,4]triazolo[4,3-a]pyridine]",74.9,63.4
"FC(F)(F)c1ccc(-c2ccc3nnc(C(F)(F)F)n3c2)cn1 [BHN-91, 3-(trifluoromethyl)-6-[6-(trifluoromethyl)pyridin-3-yl][1,2,4]triazolo[4,3-a]pyridine]",46.7,
"FC(F)(F)COc1ccc(-c2ccc3nnc(C(F)(F)F)n3c2)cn1 [BHN-92, 6-[6-(2,2,2-trifluoroethoxy)pyridin-3-yl]-3-(trifluoromethyl)[1,2,4]triazolo[4,3-a]pyridine]",76.3,63.5
"CS(=O)(=O)Nc1ccccc1-c1nnc2ccc(-c3ccc(OC(F)(F)F)cc3)cn12 [BHN-93, N-(2-{6-[4-(trifluoromethoxy)phenyl][1,2,4]triazolo[4,3-a]pyridin-3-yl}phenyl)methanesulfonamide]",21,
"FC(F)(F)c1nnc2ccc(-c3ccc(Oc4cnccn4)cc3)cn12 [BHN-94, 6-[4-(pyrazin-2-yloxy)phenyl]-3-(trifluoromethyl)[1,2,4]triazolo[4,3-a]pyridine]",27.5,
"FC(F)(F)c1nnc2ccc(-c3nnc(C4CC4)s3)cn12 [BHN-96, 6-(5-cyclopropyl-1,3,4-thiadiazol-2-yl)-3-(trifluoromethyl)[1,2,4]triazolo[4,3-a]pyridine]",,20.3
"c1ccc(Oc2ccc(-c3ccc4nnnn4c3)cc2)cc1 [BHN-97, 6-(4-phenoxyphenyl)tetrazolo[1,5-a]pyridine]",,73.2
"FC(F)(F)Oc1ccc(-c2ccc3nnnn3c2)cc1 [BHN-98, 6-[4-(trifluoromethoxy)phenyl]tetrazolo[1,5-a]pyridine]",,54.1
"CNC(=O)c1cccc(-c2nnc3ccc(-c4ccc(OC(F)(F)F)cc4)cn23)c1 [BHN-99, N-methyl-3-{6-[4-(trifluoromethoxy)phenyl][1,2,4]triazolo[4,3-a]pyridin-3-yl}benzamide]",,19.6
"FC(F)(F)c1nnc2ccc(-c3ccc(Oc4cccnc4)cc3)cn12 [BHN-100, 6-[4-(pyridin-3-yloxy)phenyl]-3-(trifluoromethyl)[1,2,4]triazolo[4,3-a]pyridine]",,27.6
"CSc1ccc(-c2ccc3cnc(C(F)(F)F)n3c2)cn1 [BHN-101, 6-[6-(methylsulfanyl)pyridin-3-yl]-3-(trifluoromethyl)imidazo[1,5-a]pyridine]",,32.3
"FC(F)(F)c1nnc2ccc(-c3ccc(OC4CC4)cc3)cn12 [BHN-102, 6-[4-(cyclopropyloxy)phenyl]-3-(trifluoromethyl)[1,2,4]triazolo[4,3-a]pyridine]",,45.5
"Cc1cc(-c2ccc(OC(F)(F)F)cc2)cn2c(C(F)(F)F)nnc12 [BHN-103, 8-methyl-6-[4-(trifluoromethoxy)phenyl]-3-(trifluoromethyl)[1,2,4]triazolo[4,3-a]pyridine]",,40.7
"COc1cc(C(F)(F)F)ccc1-c1ccc2nnc(C(F)(F)F)n2c1 [BHN-105, 6-[2-methoxy-4-(trifluoromethyl)phenyl]-3-(trifluoromethyl)[1,2,4]triazolo[4,3-a]pyridine]",,49.3
